Measured values reported in article PMC3124400 (International Journal of Nanomedicine, 2011).

Columns and labels:
[1] = cited from earlier work
[2] = In vitro release by dynamic dialysis method; assay type: physicochemical; conditions: dialysis bag control

| Time for complete diffusion of CyA in solution across the dialysis bag [2] [h] | Compound | Increase in oral bioavailability ([1]; fenofibrate in fast-dissolving solid dispersion formulation) [fold] | Enhancement of oral bioavailability ([1]; fenofibrate in liposomes containing sodium deoxycholate) [fold] |
| --- | --- | --- | --- |
| – | CC(C)OC(=O)C(C)(C)Oc1ccc(C(=O)c2ccc(Cl)cc2)cc1 [fenofibrate] | 4.4 | 5.13 |
| ≤ 1 | Cyclosporine A [CyA] | – | – |
